Seven molecules from patent US6500819B2, “Bicyclolactam compounds, use thereof and intermediates for preparing thereof” (Taiho Pharmaceutical Company Limited, priority 1994, dated 2002) can be followed below.

The subject of data set [1] is ddY mice. Put plainly: Muscle relaxant effect (traction method), second part. On the procedure:
(§1) Muscle Relaxant Effect (Traction Method)
(§2) Compound 1′a-1, the comparison compound, diazepam or buspirone was suspended in a 0.5% sodium carboxymethyl cellulose solution, and the suspension was orally administered to 3- to 4-week-old male ddY mice (in groups of 5) in a volume of 10 ml/kg one hour before the start of experiment.
(§3) With reference to a method described in Japan. J. Pharmacol., 49. 337˜349(1989), the foreleg of the mouse was hung on a horizontal wire, having a diameter of 1.2 mm and fixed at a level of 30 cm, three times consecutively. […] Thus, ED5 0 was determined for evaluation. […] Diazepam and buspirone were 2.2 mg/kg and 427.8 mg/kg, respectively, in ED5 0.

The test system of data set [2] is ddY mice. In words: Sedative effect (spontaneous locomotor activity), second part. On the procedure: Sedative Effect (Spontaneous locomotor activity)
as §2
The test was conducted with reference to a method described in “Evaluation of Medicinal Efficacies (1), Pharmacological Test Method (I), Basic Lectures on Development of Pharmaceuticals,” 50˜54(1971). More specifically, the group of mice were given the test drug and thereafter measured the amount of spontaneous locomotor activity for 10 minutes per mouse using Animex MK-110 (Muromachi Kikai Co., Ltd.).

Data set [3] deals with ddY mice. In words: Effect on central nervous system depressant (ethanol enhancing method), second part. On the procedure: Effect on central nervous system depressant (Ethanol enhancing method)
Compound 1′a-1, the comparison compound, diazepam or buspirone was suspended in a 0.5% sodium carboxymethyl cellulose solution, and the suspension was orally administered to 3- to 4-week-old male ddY mice (in groups of 6) in a volume of 10 ml/kg one hour before the start of experiment.
The test was conducted with reference to a method described in Japan. J. Pharmacol., 49, 337˜349(1989). More specifically, the group of mice were intraperitoneally given 25% ethanol at a dose of 20 ml/kg and checked for the time interval between loss and recovery of the righting reflex.

Data set [4] has as its system ddY mice. In words: Anticonvulsant effect (pentylenetetrazol-induced convulsion method), second part. Format: in vivo. Conditions: for Anticonvulsant effect (in words): oral, dose of 300 mg/kg. On the procedure: Anticonvulsant Effect (Pentylenetetrazol-induced Convulsion Method)
Compound 1′a-1, the comparison compound, diazepam or j buspirone was suspended, in a 0.5% sodium carboxymethyl cellulose solution, and the suspension was orally administered to 3- to 4-week-old maple ddY mice (in groups of 6) in a volume of 10 ml/kg one hour before the start of experiment.
The test was conducted with reference to a method described in “Evaluation of Medicinal Efficacies (1), Pharmacological Test Method (I), Basic Lectures on Development of Pharmaceuticals,” 167˜172(1971).

In data set [5] the test system is ddY mice. Put plainly: Sedative effect (spontaneous locomotor activity), first part. Conditions: mouse, in vivo, po, 300 mg/kg. On the procedure: Sedative Effect (Spontaneous Locomotor Activity)
(§4) Compound 3, Compound 13, diazepam or buspirone was suspended in a 0.5 % sodium carboxymethyl cellulose solution, and the suspension was orally administered to 3- to 4-week-old male ddY mice (in groups of 5) in a volume of 10 ml/kg one hour before the start of experiment.
The test was conducted with reference to a method described in “Evaluation of Medicinal Efficacies (1), Pharmacological Test Method (1), Basic Lectures on Development of Pharmaceuticals,” 50˜54(1971). More specifically, the group of mice were given the test drug and thereafter measured the amount of spontaneous locomotor activity for 10 minutes per mouse rising Animex MK-110 (product of Muromachi Kikai Co., Ltd.).

Data set [6] relates to ddY mice. Put plainly: Effect on central nervous system depressant: ethanol enhancing method, first part. Conditions: mouse, in vivo, po, 300 mg/kg. On the procedure: (§5) Effect On Central Nervous System Depressant
b. Ethanol Enhancing Method
(§6) Compound 3, Compound 13, diazepam or buspirone was suspended in a 0.5 % sodium carboxymethyl cellulose solution, and the suspension was orally administered to 3- to 4-week-old male ddY mice (in groups of 6) in a volume of 10 ml/kg one hour before the start of experiment.
The test was conducted with reference to a method described in Japan. J. Pharmacol., 49, 337˜349(1989). More specifically, the group of mice were intraperitoneally given 25 % ethanol at a dose of 20 ml/kg and checked for the time interval between loss and recovery of the righting reflex.

Data set [7] in a line: Acute toxicity test (LD50), first part. Format: in vivo. Particulars: mouse, in vivo; oral, male ddY mice, observed for 3 days.
The test system of data set [8] is ddY mice. Put plainly: Anticonvulsant effect (pentylenetetrazol-induced convulsion method), first part. Particulars: oral, dose of 300 mg/kg. It counts as in vivo. On the procedure: Anticonvulsant Effect (Pentylenetetrazol-Induced Convulsion Method)
as §6
The test was conducted with reference to a method described in “Evaluation of Medicinal Efficacies (1), Pharmacological Test Method (1), Basic lectures on Development of Pharmaceuticals,” 167˜172(1971).

Data set [9] can be described thus: in vivo. Particulars: male, ddY, mouse, in vivo. On the procedure: as §5
a. Pentobarbital Anesthetic Method
Compound 3, Compound 13, diazepam or buspirone was suspended in a 0.5 % sodium carboxymethyl cellulose solution, and the suspension was orally administered to 3- to 4-week-old male ddY mice (in groups of 5 to 10) in a volume of 10 ml/kg one hour before the start of experiment.
The test was conducted with reference to a method described in “Evaluation of Medicinal Efficacies (1), Pharmacological Test Method (1), Basic lectures on Development of Pharmaceuticals,” 144˜145(1971). More specifically, the group of mice were intraperitoneally given pentobarbital at a dose of 40 mg/kg and checked for sleeping time.

Data set [10] has as its system Wistar rats. Put plainly: Anticonflict test (first part, Test Example 1). It counts as in vivo. Conditions: for Frequency of water drinking behavior: 1 h before test, value relative to control = 100; for Anxiolytic effect in the anticonflict test (in words): oral, compounds at doses of 0.001 to 1.0 mg/kg. On the procedure: (§7) Wistar rats (males weighing 140 to 160 g) were used for experiment in groups of 11 to 14.
The test compound, diazepam or buspirone was suspended in a 0.5 % sodiumn carboxymethyl cellulose solution, and the suspension was orally given to the animal in a volume of 5 mnl/kg one hour before the start of experiment.
With reference to a method described in “Process in Anxiolytics and Antidepresants,” ediled by Showa Ueki and Tatsuo Furukawa, Ishiyaku Shuppansha, 56-59 (1981) , the agents were tested using experimental boxes having a grid floor and a metal drinking tube in the floor. No water was supplied to the rats for 48 hours before the experiment. Upon lapse of first 24 hours, each group of rats were placed into the experimental box, permitted access to water for 30 seconds and caused to recognize the metal drinking tube. Upon lapse of further 24 hours with access to water prevented, the rats were placed into the box again and permitted access to water on condition that an electric current was passed between the metal drinking tube and the grid to give an electroshock for every 20 times of water drinking behavior to measure the frequency of water drinking behavior for 3 minutes.
The frequency is expessed by a value relative to the frequency of the control which is taken as 100.

Data set [11] concerns Wistar rats. In words: Elevated plus maze test. Particulars: for Ratio of entries into open arm: 1 h before test, relative to control = 100. Format: in vivo. On the procedure:
Wistar rats (males weighing 170 to 220 g) were used for experiment in groups of 4 to 9.
The test compound, diazepam or buspirone was suspended in a 0.5 %) sodium carboxymethyl cellulose solution, and the suspension was orally given to the animal in a volume of 5 ml/kg one hour before the start of experiment.
The test was conducted using an experimental device, Model BTA-2, Behavior Analysis System (product of Muromachi Kikai Co., Ltd.) with reference to a method described in Psychopharmacology, 99, 48˜53(1989). […] Each group of rats orally given the test drug were placed in the center square, and the behavior of the animals was recorded for 5 minutes using a behavior analyzer. The ratio of the number of entries into the open arm to the number of entries into all the arms was determined for evaluating the anxiolytic effect.
The ratio of entries into the open arm is expressed by a value relative to the ratio attained by the control which is taken as 100.

Data set [12] relates to ddY mice. In words: Muscle relaxant effect (traction method), first part. Particulars: mouse, in vivo, po, 300 mg/kg. On the procedure:
as §1, §4, §3

Data set [13] concerns Wistar rats. Put plainly: Anticonflict test (second part, relieving rate of anxiety). Conditions: oral, dose of 1.0 mg/kg. Format: in vivo. On the procedure: as §7
No water was supplied to the rats for 48 hours before the experiment. Upon lapse of first 24 hours, each group of rats were placed into the experimental box, permitted access to water for 30 seconds and caused to recognize the metal drinking tube. Upon lapse of further 24 hours with access to water prevented, the rats were placed into the box again and permitted access to water on condition that an electric current was passed between the metal drinking tube and the grid to give an electroshock for every 20 times of water drinking behavior to measure the frequency of water drinking behavior for 3 minutes. Anxiolytic effect was evaluated as relieving rate of anxiety as calculated by the following equation.

Data set [14] deals with ddY mice. In words: Acute toxicity test (number of deaths), second part. Particulars: 6 mice, observed for 3 days. Format: in vivo.

SMILES strings stand for the structures.

Consider `O=C1CC2CCCCC2N1` (centres unmarked) [Comparison Compound, 2-azabicyclo[3.4.0]nonane-2-one], for which, in [1] (oral, dose of 300 mg/kg), the “Muscle relaxant effect (in words)” value is “no muscle relaxant effect”. Also, the “Sedative effect (in words)” value in [2] (oral, dose of 300 mg/kg) was “no sedative effect”. The “Ethanol enhancing effect (in words)” value in data set [3] (oral, dose of 300 mg/kg) is listed as “no ethanol enhancing effect”. In addition, the “Anticonvulsant effect (in words)” value in [4] is recorded as “no anticonvulsant effect”.
A word on the LD50: it is the dose expected to kill half of the subjects tested. A high value points to lower toxicity. The term ED50 denotes the midpoint of the dose-response relation. For `COc1ccc(C(=O)N2C(=O)CCC3CCCC32)cc1` (centres unmarked) [Compound 3, 2-(4-methoxybenzoyl)-2-azabicyclo[4.3.0]nonane-3-one], the “Sedative effect (in words)” value in data set [5] is “no sedative effect”. The “Ethanol enhancing effect (in words)” value in [6] is given as “no ethanol enhancing effect”. In [7], this molecule showed an LD50 at 3 days of over 2000 mg/kg. The “Anticonvulsant effect (in words)” value in data set [8] is “no anticonvtilsant effect”. In [9], this molecule returned an ED50 at 1 h of at least 300 mg/kg. The Frequency of water drinking behavior in data set [10] (dose 0.001 mg/kg oral) was 126%; in data set [10] (dose 0.01 mg/kg oral), 162%; in [10] (dose 0.1 mg/kg oral), 164%; in data set [10] (dose 1.0 mg/kg oral) it was 166%. For the same molecule, in data set [10], the “Anxiolytic effect in the anticonflict test (in words)” value is listed as “increase in the frequency of water drinking behavior”. Moreover, the “Ratio of entries into open arm” value in data set [11] (dose 0.001 oral) is 195; in [11] (dose 0.01 oral), 219; in data set [11] (dose 0.1 oral), 248. For the same molecule, the “Anxiolytic effect in the elevated plus maze (in words)” value in [11] (oral, dose of 0.001 mg/kg or greater) was “increase in the number of entries into the open arm”. For the same molecule, the “Muscle relaxant effect (in words)” value in [12] was “no muscle relaxant effect”.
`O=C1CC2(CCCC2)CC(=O)N1CCCCN1CCN(c2ncccn2)CC1` [Buspirone, buspirone, reference compound]: the “ED6O, sedative effect (spontaneous locomotor activity up to 50% of control)” value in data set [2] (male, ddY, mouse, in vivo, po, 1 h) came to 149.7 mg/kg. The “Anxiolytic effect in the anticonflict test (in words)” value in data set [13] and in data set [10] was “almost ineffective” each time. For the same molecule, in data set [10] (dose 1.0 mg/kg oral), the Frequency of water drinking behavior came out at 103%. Also, the “Ratio of entries into open arm” value in data set [11] (dose 1.0 oral) was determined as 98; in data set [11] (dose 10.0 oral), 93. Also, the ED50 in [4] (Mus musculus, 1 h, read-out: ED50, anticonvulsant effect (no death within 60 minutes)) is at least 300 mg/kg.
For the molecule `COc1ccc(C(=O)N2C(=O)CC[C@H]3[C@H](O)CC[C@H]32)cc1` (racemic) [Compound 1′a-1, (1RS, 6RS, 7RS)-7-hydroxy-2-(4-methoxybenzoyl)-2-azabicyclo-[4.3.0]nonan-3-one], the Number of death was found to be 0 in data set [14] (dose 2000 mg/kg oral) and 2 in data set [14] (dose 3000 mg/kg oral). In data set [1] (mouse, in vivo, po, 300 mg/kg), the “Muscle relaxant effect (in words)” value was “no muscle relaxant effect”. In data set [2] (mouse, in vivo, po, 300 mg/kg), the “Sedative effect (in words)” value is recorded as “no sedative effect”. The “Ethanol enhancing effect (in words)” value in data set [3] (mouse, in vivo, po, 300 mg/kg) was “no ethanol enhancing effect”. Moreover, the “Anticonvulsant effect (in words)” value in [4] is recorded as “no anticonvulsant effect”.
`COc1ccc(C(=O)N2C(=O)CC3CCCCC32)cc1` (centres unmarked) [Compound 11, 7-(4-methoxybenzoyl)-7-azabicyclo[4.3.0]nonane-8-one]: the LD50 at 3 days in [7] is over 2000 mg/kg. Besides, the Frequency of water drinking behavior in data set [10] (dose 1.0 mg/kg oral) is 133%. Also, the “Anxiolytic effect in the anticonflict test (in words)” value in data set [10] is on record as “increase in the frequency of water drinking behavior”.
`COc1ccc(C(=O)N2C(=O)CCC3CCCCC32)cc1` (centres unmarked) [Compound 1, 2-(4-methoxybenzoyl)-2-azabicyclo[4.4.0)decane-3-one]: the LD50 at 3 days in data set [7] was over 2000 mg/kg. Besides, the Frequency of water drinking behavior in data set [10] (dose 0.01 mg/kg oral) worked out at 138%; in [10] (dose 0.1 mg/kg oral), 140%; in [10] (dose 1.0 mg/kg oral), 122%. Moreover, in [10], the “Anxiolytic effect in the anticonflict test (in words)” value was “increase in the frequency of water drinking behavior”.
A word on the melting point: it is the temperature, or range, at which the solid turns liquid. For `COc1ccc(C(=O)N2C(=O)CC[C@@H]3[C@H]2CC[C@H]3OCc2ccccc2)cc1` (racemic) [Compound 4a-1, (1RS, 6RS, 7RS)-7-benzyloxy-2-(4-methoxybenzoyl)-2-azabicyclo[4.3.0]nonan-3-one], the melting point stood at 109.5 °C.
